The record followed here is patent US10561638B2, “Methods for treating dependence” (Biotie Therapies, Inc., priority 2007, dated 2020).

In the experiment the target is T1, human dopamine β-hydroxylase (Homo sapiens, UniProt P09172).
T1 construct: Human secretory DBH was purified from the culture medium of the neuroblastoma cell line SK-N-SH; endogenous in cells; host or cells: SK-N-SH neuroblastoma cells (enzyme secreted into the culture medium, purified on lentil lectin-sepharose)
T1 sequence (P09172 40-617 limits assumed): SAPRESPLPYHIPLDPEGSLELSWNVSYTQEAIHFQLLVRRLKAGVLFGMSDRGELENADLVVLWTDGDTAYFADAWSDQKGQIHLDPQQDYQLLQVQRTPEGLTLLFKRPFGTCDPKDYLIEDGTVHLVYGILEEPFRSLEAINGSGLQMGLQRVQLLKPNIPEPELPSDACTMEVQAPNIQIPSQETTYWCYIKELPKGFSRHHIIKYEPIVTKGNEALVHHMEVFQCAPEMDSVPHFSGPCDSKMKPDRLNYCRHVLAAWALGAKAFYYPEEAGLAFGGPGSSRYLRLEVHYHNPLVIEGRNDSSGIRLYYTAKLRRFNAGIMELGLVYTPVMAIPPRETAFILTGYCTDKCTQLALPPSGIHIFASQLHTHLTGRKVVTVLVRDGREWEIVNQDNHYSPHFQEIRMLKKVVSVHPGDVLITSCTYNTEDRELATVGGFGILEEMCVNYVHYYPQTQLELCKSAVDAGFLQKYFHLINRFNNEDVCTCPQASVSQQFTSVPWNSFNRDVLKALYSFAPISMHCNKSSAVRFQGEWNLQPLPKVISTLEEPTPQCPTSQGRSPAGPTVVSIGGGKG
Kind of experiment: DBH assay, conversion of tyramine to octopamine. The class given is biochemical. The protocol:
Bovine and human dopamine β-hydroxylase activity were assayed by measuring the conversion of tyramine to octopamine. Bovine adrenal dopamine β-hydroxylase was obtained from Sigma Chemicals (St Louis, Mo., USA) whereas human dopamine β-hydroxylase was purified from the culture medium of the neuroblastoma cell line SK-N-SH. The assay was performed at pH 5.2 and 32° C. in a medium containing 0.125 M NaAc, 10 mM fumarate, 0.5-2 μM CuSO4, 0.1 mg·ml^−1 catalase, 0.1 mM tyramine and 4 mM ascorbate. In a typical assay, 0.5-1 milliunits of enzyme were added to the reaction mixture and, subsequently, a substrate mixture containing catalase, tyramine and ascorbate was added to initiate the reaction (final volume of 200 μl). Samples were incubated with or without the appropriate concentration of nepicastat or Compound B at 37° C. for 30 to 40 minutes. The reaction was quenched by the stop solution containing 25 mM EDTA and 240 μM 3-hydroxytyramine (internal standard). The samples were analyzed for octopamine by reverse phase high pressure liquid chromatography (HPLC) using ultraviolet-detection at […]. The HPLC chromatography run was carried out at the flow rate of 1 ml·min^−1 using a LiChroCART 125-4 RP-18 column and isocratic elution with 10 mM acidic acid, 10 mM 1-heptane sulfonic acid, 12 mM tetrabutyl ammonium phosphate and 10% methanol. The remaining percent activity was calculated based on controls, corrected using internal standards and fitted to a non-linear four-parameter concentration-response curve.
DBH activity was assayed by measuring the conversion of tyramine to octopamine. Bovine DBH from adrenal glands was obtained from Sigma Chemical Co (St Louis, Mo.). Human secretory DBH was purified from the culture medium of the neuroblastoma cell line SK-N-SH. The assay was performed at pH 5.2 and 32° C. in 0.125 M NaOAc, 10 mM fumarate, 0.5-2 μM CUSO4, 0.1 mg/mL catalase, 0.1 mM tyramine and 4 mM ascorbate. In a typical assay, 0.5-1 milliunits of enzyme were added to the reaction mixture and then a substrate mixture containing catalase, tyramine and ascorbate was added to initiate the reaction (final volume of 200 μL). Samples were incubated with or without the appropriate concentration of the inhibitor at 37° C. for 30-40 min. The reaction was quenched by the stop solution containing 25 mM EDTA and 240 μM 3-hydroxytyramine (internal standard). The samples were analyzed for octopamine by reverse phase HPLC using UV detection at […]. The remaining percent activity was calculated based on controls (without inhibitor), corrected using internal standards and fitted to a non-linear 4-parameter concentration-response curve to obtain IC50 values.
Bovine DBH from adrenal glands was obtained from Sigma Chemicals (St. Louis, Mo.). Human secretory DBH was purified from the culture medium of the neuroblastoma cell line SK-N-SH and was used to obtain the inhibition data. A lentil lectin-sepharose column containing 25 ml gel was prepared and equilibrated with 50 mM KH2PO4, pH 6.5, 0.5 M NaCl. The column was eluted with 35 ml of 10% methyl a, D-mannopyranoside in 50 mM KH2PO4, pH 6.5, 0.5 M NaCl at 0.5 ml/min. Fraction containing most enzymatic activities were pooled and concentrated with an Amicon stirred cell using a YM30 membrane. Methyl a, D-mannopyranoside was removed by buffer exchange with in 50 mM KH2PO4, pH 6.5, 0.1M NaCl. The concentrated enzyme solution was aliquoted and stored at −25° C.
An HPLC assay was used to measure DBH activity using tyramine and ascorbate as substrates. […]

Usually IC50 stands for the concentration that inhibits the measured activity by half. Read a low IC50 as greater potency in that assay.

As to `Fc1cc(F)cc(Cn2cc[nH]c2=S)c1` [SKF-102698, reference compound], the IC50 (0.1 mM tyramine, 4 mM ascorbate, pH 5.2) was determined as 0.085 ± 0.0037 µM.
With `Cl.NCc1c[nH]c(=S)n1[C@H]1CCc2c(F)cc(F)cc2C1` [nepicastat, (S)-5-Aminomethyl-1-(5,7-difluoro-1,2,3,4-tetrahydronaphth-2-yl)-2,3-dihydro-2-thioxo-1H-imidazole hydrochloride], the “selectivity for dopamine-β-hydroxylase over the other enzymes studied” value was more than 1000 fold. In addition, the “potency of nepicastat relative to SKF-102698” value (human DBH) was found to be 9 fold. Further, under “human and bovine DBH”, the “potency of nepicastat relative to SKF-102698” value is given as 8-9 fold and the “potency of nepicastat relative to the R-enantiomer” value is listed as 2-3 fold. Besides, the “potency of nepicastat relative to Compound B” value (human enzyme) was 2 fold.
